Tests used:
[1] = molecular target: T1, L68Q cystatin C (Homo sapiens, UniProt P01034, L94Q); assay: Preliminary trial of N-acetylcysteine in HCCAA patients expressing L68Q cystatin C, monitored by biopsy; format: in vivo
T1 construct: confirmed by genetic screen to express L68Q cystatin C; from tissue; host or cells: HCCAA patients; plaques and aggregated protein observed on biopsy
T1 sequence (P01034 27-146 L94Q): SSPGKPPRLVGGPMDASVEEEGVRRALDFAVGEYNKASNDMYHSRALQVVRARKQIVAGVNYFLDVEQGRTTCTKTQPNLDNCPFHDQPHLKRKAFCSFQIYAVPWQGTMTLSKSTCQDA
Excerpt: Three persons who had been identified through characteristic HCCAA symptoms confirmed by genetic screen to express L68Q cystatin C agreed to participate in a preliminary trial with a prototype drug to support antioxidant and other effects of GSH. N-acetylcysteine was used as a GSH-support/anti-cystatin-C-polymerization archetypical drug for conceptual proof and support of the hypotheses supporting this invention. […] One patient fully complied with the prescribed protocol. Two patients were only partially compliant. The fully compliant patient presented with a 50% reduction in plaques observed on biopsy.
Treatments are continuing, augmented by confirmatory/advisory biopsies. Biopsy intervals may be approximately weekly, but longer intervals are envisioned as sufficient to monitor effects and dosages and to encourage compliance in testing and treatment maintenance. For example, biopsy intervals may be weekly, biweekly, monthly, bimonthly, quarterly, semi-annual, annual, etc. Biopsy appointments may be used both for treatment/disease monitoring, but also to maintain patient attention and interaction. Medical advisory panels and insurance issues may also be considered in determining the frequency and type(s) of biopsies.

[2] = tested on: cellular glutathione; conditions: dose of about 22-65 mg/kg; cited from earlier work

disease arrest ([1]; all three HCCAA patients (one fully compliant, two partially compliant))	reduction in plaques observed on biopsy ([1]; fully compliant patient) [%]	reduction of aggregated protein previously observed ([1]; one of the two partially compliant patients)	Structure (SMILES)	change in cellular glutathione shortly after administration [2]	duration of effect, waning in plasma post administration [2] [h]
disease arrest	50	significant reduction	CC(=O)N[C@@H](CS)C(=O)O [N-acetylcysteine]	–	–
–	–	–	O=C1N[C@H](C(=O)O)CS1 [OTC, L-2-oxothiazolidine-4-carboxolate]	double	≤ 8
